Where “and” joins values, the source holds several entries; their conditions need not be identical. Equal values may be shown once.
Experiments:
[1] = test system: osteoarthritis of the knee; test: Second Phase 2 study: WOMAC stiffness subscale score; assay type: in vivo, human
Excerpt: For subjects with bilateral knee pain, both knees will be treated, but the most symptomatic knee (ie, the most painful knee as measured by the Western Ontario and McMaster University Osteoarthritis Index [WOMAC® 3.1] pain subscale score at Screening) will be designated as the target knee for efficacy analyses. For subjects with unilateral knee pain, only the symptomatic (target) knee will be treated.
The VAS version of the WOMAC will be used for the Primary and Secondary Efficacy Endpoints. Efficacy endpoints will be assessed at Screening and Baseline (Day 1) and at the Week 2, Week 4, Week 8, and Week 12/EOS visits.
4.9.2. Secondary Efficacy Endpoints: • 1. Change from Baseline in the WOMAC (VAS) pain subscale score for the target knee at 2, 8, and 12 weeks of treatment; • 2. Change from Baseline in the WOMAC (VAS) stiffness subscale scores for the target knee and WOMAC (VAS) functional ability subscale scores at 2, 4, 8, and 12 weeks of treatment; • 3. Change from Baseline in the overall WOMAC (VAS) score at 2, 4, 8, and 12 weeks of treatment; • 4. Subject's global assessment of disease status of the target knee at 2, 4, 8, and 12 weeks of treatment; • 5. Subject's global assessment of response to therapy of the target knee at 2, 4, 8, and 12 weeks of treatment; • 6. Amount of rescue medication (acetaminophen) consumed per day for target knee pain.
The Secondary Efficacy Endpoints, change from Baseline in the WOMAC subscale scores for pain, stiffness, and functional ability, and overall WOMAC score at 2, 4, 8, and 12 weeks of treatment, will be analyzed using the same methods as for the Primary Efficacy Endpoint.

[2] = test system: osteoarthritis of the knee; test: Second Phase 2 study: Investigator's assessment of response to therapy (IART); assay type: in vivo, human; conditions: Week 12; for IART: Good and Very good / IART: Poor and Very Poor / IART: fair: first 130 subjects; for IART, Good and Very good / IART, Poor and Very Poor / IART, fair: all subjects
Excerpt: 4.9.3. Exploratory Efficacy Endpoints: • 1. Investigator's global assessment of response to therapy of the target knee at 2, 4, 8, and 12 weeks of treatment; • 2. Change from Baseline over time in overall WOMAC (VAS) score for the target knee after the treatment is stopped for 2 weeks.

[3] = Week 12, 4.375 mg/knee BID (n = 23), first 130 subjects
[4] = Week 12, 8.75 mg/knee BID (n = 24), first 130 subjects
[5] = Week 12, 17.5 mg/knee BID (n = 19), first 130 subjects
[6] = all subjects, 4.375 mg/knee BID, n = 49, Week 12
[7] = all subjects, 8.75 mg/knee BID, n = 54, Week 12
[8] = all subjects, 17.5 mg/knee BID, n = 52, Week 12

Question: CCN(CC)CCOC(=O)C(C)c1ccc(CC(C)C)cc1 (stereo not drawn) [2-(diethylamino)ethyl 2-(4-isobutylphenyl)propionate] was tested. Which “WOMAC Joint Stiffness Subscale Score, Day 1, Avg.” value ([1]; Avg. of all patients (blinded), Low Dose (2 spray/knee, 8.75 mg/knee) Cohort, Day 1) did it give?
Answer: Its value is 64.2.

Question: And the “WOMAC Joint Stiffness Subscale Score, Week 2, Avg.” value ([1]; Avg. of all patients (blinded), Low Dose (2 spray/knee, 8.75 mg/knee) Cohort, Week 2)?
Answer: Its value is 52.5.

Question: What about the “WOMAC Joint Stiffness Subscale Score, Week 4, Avg.” value ([1]; Avg. of all patients (blinded), Low Dose (2 spray/knee, 8.75 mg/knee) Cohort, Week 4) of the same compound?
Answer: The value was 45.7.

Question: And the “WOMAC Joint Stiffness Subscale Score, Week 8, Avg.” value ([1]; Avg. of all patients (blinded), Low Dose (2 spray/knee, 8.75 mg/knee) Cohort, Week 8)?
Answer: Its value is 42.3.

Question: What about the “WOMAC Joint Stiffness Subscale Score, Week 12, Avg.” value ([1]; Avg. of all patients (blinded), Low Dose (2 spray/knee, 8.75 mg/knee) Cohort, Week 12) of the same compound?
Answer: The value was 41.8.

Question: What about the “WOMAC Stiffness Subscale Scores, Baseline (LS Mean)” value ([1]; 4.375 mg/knee BID (n = 23), first 130 subjects) of the same compound?
Answer: Its value is 50.2 mm.

Question: And the “WOMAC Stiffness Subscale Scores, Baseline (LS Mean)” value ([1]; 8.75 mg/knee BID (n = 24), first 130 subjects)?
Answer: The value was 52.4 mm.

Question: And the “WOMAC Stiffness Subscale Scores, Baseline (LS Mean)” value ([1]; 17.5 mg/knee BID (n = 19), first 130 subjects)?
Answer: The value was 57.6 mm.

Question: What about the “WOMAC Stiffness Subscale Scores, % of improvement from Oral Ibuprofen” value [1, 3] of the same compound?
Answer: The value was 0.6%.

Question: And the “WOMAC Stiffness Subscale Scores, % of improvement from Placebo” value [1, 3]?
Answer: The value was −9.7%.

Question: And the “WOMAC Stiffness Subscale Scores, % of improvement from baseline” value [1, 3]?
Answer: The value was −35.9%.

Question: What about the “WOMAC Stiffness Subscale Scores, Changes from Baseline (LS Mean)” value (“WOMAC Stiffness Subscale Scores, Changes” for short) [1, 3] of the same compound?
Answer: The value was −18.0 mm.

Question: What about the “WOMAC Stiffness Subscale Scores, Different from placebo (LS Mean)” value [1, 3] of the same compound?
Answer: The value was −4.0 mm.

Question: And the “WOMAC Stiffness Subscale Scores, Week 12 (LS Mean)” value [1, 3]?
Answer: The value was 32.2 mm.

Question: And the “WOMAC Stiffness Subscale Scores, % of improvement from Oral Ibuprofen” value [1, 4]?
Answer: The value was −2.4%.

Question: What about the “WOMAC Stiffness Subscale Scores, % of improvement from Placebo” value [1, 4] of the same compound?
Answer: Its value is −12.7%.

Question: What about the “WOMAC Stiffness Subscale Scores, % of improvement from baseline” value [1, 4] of the same compound?
Answer: The value was −38.9%.

Question: And the “WOMAC Stiffness Subscale Scores, Changes” value [1, 4]?
Answer: Its value is −20.4 mm.

Question: What about the “WOMAC Stiffness Subscale Scores, Different from oral ibuprofen (LS Mean)” value [1, 4] of the same compound?
Answer: Its value is 0.2 mm.

Question: And the “WOMAC Stiffness Subscale Scores, Different from placebo (LS Mean)” value [1, 4]?
Answer: Its value is −6.4 mm.

Question: And the “WOMAC Stiffness Subscale Scores, Week 12 (LS Mean)” value [1, 4]?
Answer: Its value is 32.0 mm.

Question: And the “WOMAC Stiffness Subscale Scores, % of improvement from Oral Ibuprofen” value [1, 5]?
Answer: Its value is −21.0%.

Question: What about the “WOMAC Stiffness Subscale Scores, % of improvement from Placebo” value [1, 5] of the same compound?
Answer: The value was −31.3%.

Question: And the “WOMAC Stiffness Subscale Scores, % of improvement from baseline” value [1, 5]?
Answer: Its value is −57.5%.

Question: What about the “WOMAC Stiffness Subscale Scores, Changes” value [1, 5] of the same compound?
Answer: The value was −33.1 mm.

Question: What about the “WOMAC Stiffness Subscale Scores, Different from oral ibuprofen (LS Mean)” value [1, 5] of the same compound?
Answer: Its value is −12.4 mm.

Question: And the “WOMAC Stiffness Subscale Scores, Different from placebo (LS Mean)” value [1, 5]?
Answer: The value was −19.1 mm.

Question: And the “WOMAC Stiffness Subscale Scores, Week 12 (LS Mean)” value [1, 5]?
Answer: The value was 24.6 mm.

Question: What about the “WOMAC Stiffness Subscale Scores, % of improvement from Oral Ibuprofen” value [1, 6] of the same compound?
Answer: Its value is 4.7%.

Question: What about the “WOMAC Stiffness Subscale Scores, % of improvement from Placebo” value [1, 6] of the same compound?
Answer: The value was −2.2%.

Question: And the “WOMAC Stiffness Subscale Scores, % of improvement from baseline” value [1, 6]?
Answer: Its value is −34.6%.

Question: And the “WOMAC Stiffness Subscale Scores, Changes” value [1, 6]?
Answer: The value was −16.9 mm.

Question: And the “WOMAC Stiffness Subscale Scores, Week 12 (LS Mean)” value [1, 6]?
Answer: The value was 31.9 mm.

Question: What about the “WOMAC Stiffness Subscale Scores, % of improvement from Oral Ibuprofen” value [1, 7] of the same compound?
Answer: Its value is −2.8%.

Question: And the “WOMAC Stiffness Subscale Scores, % of improvement from Placebo” value [1, 7]?
Answer: The value was −9.7%.

Question: And the “WOMAC Stiffness Subscale Scores, % of improvement from baseline” value [1, 7]?
Answer: The value was −42.1%.

Question: And the “WOMAC Stiffness Subscale Scores, Changes” value [1, 7]?
Answer: The value was −23.3 mm.

Question: And the “WOMAC Stiffness Subscale Scores, Different from oral ibuprofen (LS Mean)” value [1, 7]?
Answer: The value was −3.0 mm.

Question: And the “WOMAC Stiffness Subscale Scores, Different from placebo (LS Mean)” value [1, 7]?
Answer: The value was −6.7 mm.

Question: And the “WOMAC Stiffness Subscale Scores, Week 12 (LS Mean)” value [1, 7]?
Answer: Its value is 32.0 mm.

Question: What about the “WOMAC Stiffness Subscale Scores, % of improvement from Oral Ibuprofen” value [1, 8] of the same compound?
Answer: Its value is −8.0%.

Question: What about the “WOMAC Stiffness Subscale Scores, % of improvement from Placebo” value [1, 8] of the same compound?
Answer: Its value is −14.9%.

Question: What about the “WOMAC Stiffness Subscale Scores, % of improvement from baseline” value [1, 8] of the same compound?
Answer: Its value is −47.3%.

Question: What about the “WOMAC Stiffness Subscale Scores, Changes” value [1, 8] of the same compound?
Answer: The value was −25.2 mm.

Question: What about the “WOMAC Stiffness Subscale Scores, Different from oral ibuprofen (LS Mean)” value [1, 8] of the same compound?
Answer: The value was −4.9 mm.

Question: What about the “WOMAC Stiffness Subscale Scores, Different from placebo (LS Mean)” value [1, 8] of the same compound?
Answer: Its value is −8.6 mm.

Question: What about the “WOMAC Stiffness Subscale Scores, Week 12 (LS Mean)” value [1, 8] of the same compound?
Answer: The value was 28.1 mm.

Question: And the “WOMAC Joint Stiffness Subscale Score, Week 4” value ([1]; individual patient (blinded), Low Dose (2 spray/knee, 8.75 mg/knee) Cohort, Week 4)?
Answer: Its value is 59.5 and 62.

Question: What about the “IART: Good and Very good” value ([2]; 4.375 mg/knee BID (n = 23)) of the same compound?
Answer: Its value is 39.1%.

Question: And the “IART: Poor and Very Poor” value ([2]; 4.375 mg/knee BID (n = 23))?
Answer: Its value is 4.3%.

Question: And the “IART: fair” value ([2]; 4.375 mg/knee BID (n = 23))?
Answer: The value was 56.5%.

Question: And the “IART: Good and Very good” value ([2]; 8.75 mg/knee BID (n = 24))?
Answer: Its value is 37.5%.

Question: What about the “IART: Poor and Very Poor” value ([2]; 8.75 mg/knee BID (n = 24)) of the same compound?
Answer: The value was 12.5%.

Question: And the “IART: fair” value ([2]; 8.75 mg/knee BID (n = 24))?
Answer: Its value is 50.0%.

Question: And the “IART: Good and Very good” value ([2]; 17.5 mg/knee BID (n = 19))?
Answer: Its value is 57.9%.

Question: And the “IART: Poor and Very Poor” value ([2]; 17.5 mg/knee BID (n = 19))?
Answer: Its value is 5.3%.

Question: What about the “IART: fair” value ([2]; 17.5 mg/knee BID (n = 19)) of the same compound?
Answer: Its value is 36.8%.

Question: And the “IART, Good and Very good” value ([2]; 4.375 mg/knee BID, n = 49)?
Answer: The value was 40.8%.

Question: And the “IART, Poor and Very Poor” value ([2]; 4.375 mg/knee BID, n = 49)?
Answer: Its value is 10.2%.

Question: And the “IART, fair” value ([2]; 4.375 mg/knee BID, n = 49)?
Answer: The value was 49.0%.

Question: And the “IART, Good and Very good” value ([2]; 8.75 mg/knee BID, n = 54)?
Answer: The value was 50.0%.

Question: What about the “IART, Poor and Very Poor” value ([2]; 8.75 mg/knee BID, n = 54) of the same compound?
Answer: Its value is 13.0%.

Question: And the “IART, fair” value ([2]; 8.75 mg/knee BID, n = 54)?
Answer: The value was 37.0%.

Question: And the “IART, Good and Very good” value ([2]; 17.5 mg/knee BID, n = 52)?
Answer: The value was 61.5%.

Question: What about the “IART, Poor and Very Poor” value ([2]; 17.5 mg/knee BID, n = 52) of the same compound?
Answer: The value was 3.8%.

Question: What about the “IART, fair” value ([2]; 17.5 mg/knee BID, n = 52) of the same compound?
Answer: The value was 34.6%.

Reference: patent publication US20240024273A1, “TOPICAL ADMINISTRATION OF 2-(DIETHYLAMINO)ETHYL 2-(4-ISOBUTYLPHENYL)PROPRIONATE FOR TREATMENT OF DISEASES” (TECHFIELDS PHARMA CO., LTD., priority 2020, published 2024)
